For assay [1], the target named is Macrophage colony-stimulating factor 1 receptor (Homo sapiens) (UniProt P07333). In words: Inhibition of recombinant human His-tagged CSF1R (538 to 910 residues) expressed in baculovirus expression system at 500 nM using Tyr 01 peptide as substrate incubated for 1 hr in presence of ATP at its Km concentration by Z'-LYTE assay relative to control.
Assay [2] concerns the target Tyrosine-protein kinase SYK (Homo sapiens) (UniProt P43405). In words: Inhibition of recombinant human N-terminal GST-tagged full length SYK expressed in baculovirus expression system at 500 nM using Tyr 02 as substrate incubated for 1 hr in presence of ATP at its Km concentration by Z'-LYTE assay relative to control.
Assay [3] has as its target T1, Epidermal growth factor receptor (Homo sapiens, UniProt P00533). Conditions: dose 500.0 nM, time 1.0 hrs.
The target of assay [4] is Tyrosine-protein kinase Lyn (Homo sapiens) (UniProt P07948). Briefly: Inhibition of recombinant full length human GST-tagged LYN-A expressed in insect cells at 500 nM using Tyr 02 as substrate incubated for 1 hr in presence of ATP at its Km concentration by Z'-LYTE assay relative to control.
The target of assay [5] is T1, Epidermal growth factor receptor. The conditions noted are these: dose 100.0 nM.
Description: Inhibition of human EGFR at 100 nM using poly[Glu:Tyr] (4:1) as substrate in presence of [gamma33P]ATP by radiometric HotSpot assay relative to control
Assay [6] deals with Mitogen-activated protein kinase 1 (Homo sapiens) (UniProt P28482). Briefly: Inhibition of recombinant full length GST-tagged human MAPK1 expressed in Escherichia coli at 500 nM using Ser/Thr 03 as substrate incubated for 1 hr in presence of 100 uM ATP by Z'-LYTE assay relative to control.
Assay [7] addresses Mitogen-activated protein kinase 14 (Homo sapiens) (UniProt Q16539). In words: Inhibition of recombinant human GST-tagged full length MAPK14 expressed in Escherichia coli expression system at 500 nM using Ser/Thr 04 as substrate incubated for 1 hr in presence of ATP at its Km concentration by Z'-LYTE assay relative to control.
For assay [8], the target named is Aurora kinase B (Homo sapiens) (UniProt Q96GD4). Briefly: Inhibition of recombinant full length His-tagged human AURKB expressed in baculovirus expression system at 500 nM using Ser/Thr 01 as substrate incubated for 1 hr in presence of ATP at its Km concentration by Z'-LYTE assay relative to control.
Another assay concerns A-431. In words: Antiproliferative activity against human A431 cells. The class given is functional, cell-based.
Assay [9] concerns the target Vascular endothelial growth factor receptor 2 (Homo sapiens) (UniProt P35968). In words: Inhibition of recombinant human His-tagged KDR (789 to 1356 residues) expressed in baculovirus expression system at 500 nM using Tyr 01 as substrate incubated for 1 hr in presence of ATP at its Km concentration by Z'-LYTE assay relative to control.
The target in assay [10] is Tyrosine-protein kinase CSK (Homo sapiens) (UniProt P41240). Briefly: Inhibition of recombinant full length human His-tagged CSK expressed in Escherichia coli expression system at 500 nM using Tyr 02 peptide as substrate incubated for 1 hr in presence of ATP at its Km concentration by Z'-LYTE assay relative to control.
For assay [11], the target named is Proto-oncogene tyrosine-protein kinase Src (Homo sapiens) (UniProt P12931). Briefly: Inhibition of recombinant human His-tagged full length SRC expressed in baculovirus expression system at 500 nM using Tyr 02 as substrate incubated for 1 hr in presence of ATP at its Km concentration by Z'-LYTE assay relative to control.
For assay [12], the target named is Tyrosine-protein kinase HCK (Homo sapiens) (UniProt P08631). In words: Inhibition of recombinant full length N-terminal GST-tagged human HCK expressed in baculovirus expression system at 500 nM using Tyr 02 as substrate incubated for 1 hr in presence of ATP at its Km concentration by Z'-LYTE assay relative to control.
For assay [13], the target named is Serine/threonine-protein kinase PLK1 (Homo sapiens) (UniProt P53350). Briefly: Inhibition of recombinant full length human His-tagged PLK1 expressed in baculovirus expression system at 500 nM using Ser/Thr 16 as substrate incubated for 1 hr in presence of ATP at its Km concentration by Z'-LYTE assay relative to control.
For assay [14], the target named is Protein kinase C alpha type (Homo sapiens) (UniProt P17252). In words: Inhibition of human full length GST-tagged PRKCA expressed in insect cells at 500 nM using Ser/Thr 07 as substrate incubated for 1 hr in presence of ATP at its Km concentration by Z'-LYTE assay relative to control.
In assay [15] the target is Tyrosine-protein kinase Fgr (Homo sapiens) (UniProt P09769). Briefly: Inhibition of recombinant full length human C-terminal His-tagged FGR expressed in baculovirus expression system at 500 nM using Tyr 02 peptide as substrate incubated for 1 hr in presence of ATP at its Km concentration by Z'-LYTE assay relative to control.
Assay [16] deals with Angiopoietin-1 receptor (Homo sapiens) (UniProt Q02763). In words: Inhibition of recombinant human GST-tagged TEK (817 to 1101 residues) expressed in baculovirus expression system at 500 nM using Tyr 05 as substrate incubated for 1 hr in presence of ATP at its Km concentration by Z'-LYTE assay relative to control.
For assay [17], the target named is T2, Serine/threonine-protein kinase Chk1 (Homo sapiens) (UniProt O14757).
T2 sequence (whole entry): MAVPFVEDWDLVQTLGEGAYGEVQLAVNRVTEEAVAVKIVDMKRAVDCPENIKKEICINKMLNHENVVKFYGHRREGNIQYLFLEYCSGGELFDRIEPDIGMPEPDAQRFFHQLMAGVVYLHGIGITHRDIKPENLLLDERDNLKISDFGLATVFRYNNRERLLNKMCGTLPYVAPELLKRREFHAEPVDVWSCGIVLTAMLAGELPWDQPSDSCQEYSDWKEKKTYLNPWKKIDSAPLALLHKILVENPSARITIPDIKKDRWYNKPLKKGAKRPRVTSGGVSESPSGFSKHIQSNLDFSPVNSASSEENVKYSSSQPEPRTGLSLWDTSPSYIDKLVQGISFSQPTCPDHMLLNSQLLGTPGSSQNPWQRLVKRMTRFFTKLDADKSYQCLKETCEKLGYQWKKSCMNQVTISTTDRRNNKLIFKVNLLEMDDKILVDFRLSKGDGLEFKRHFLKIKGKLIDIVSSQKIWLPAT
In words: Inhibition of recombinant human full-length His-tagged CHEK1 expressed in baculovirus expression system at 500 nM using Ser/Thr 19 peptide as substrate incubated for 1 hr in presence of ATP at its Km concentration by Z'-LYTE assay relative to control.

The target in assay [18] is Mast/stem cell growth factor receptor Kit (Homo sapiens) (UniProt P10721). Briefly: Inhibition of human recombinant His-tagged c-Kit cytoplasmic domain (544 to 976 residues) expressed in baculovirus expression system at 500 nM using Tyr 06 as substrate incubated for 1 hr in presence of ATP at its Km concentration by Z'-LYTE assay relative to control.

A value given as a limit tells only on which side of the number the result lay.

T1 sequence (P00533 whole entry): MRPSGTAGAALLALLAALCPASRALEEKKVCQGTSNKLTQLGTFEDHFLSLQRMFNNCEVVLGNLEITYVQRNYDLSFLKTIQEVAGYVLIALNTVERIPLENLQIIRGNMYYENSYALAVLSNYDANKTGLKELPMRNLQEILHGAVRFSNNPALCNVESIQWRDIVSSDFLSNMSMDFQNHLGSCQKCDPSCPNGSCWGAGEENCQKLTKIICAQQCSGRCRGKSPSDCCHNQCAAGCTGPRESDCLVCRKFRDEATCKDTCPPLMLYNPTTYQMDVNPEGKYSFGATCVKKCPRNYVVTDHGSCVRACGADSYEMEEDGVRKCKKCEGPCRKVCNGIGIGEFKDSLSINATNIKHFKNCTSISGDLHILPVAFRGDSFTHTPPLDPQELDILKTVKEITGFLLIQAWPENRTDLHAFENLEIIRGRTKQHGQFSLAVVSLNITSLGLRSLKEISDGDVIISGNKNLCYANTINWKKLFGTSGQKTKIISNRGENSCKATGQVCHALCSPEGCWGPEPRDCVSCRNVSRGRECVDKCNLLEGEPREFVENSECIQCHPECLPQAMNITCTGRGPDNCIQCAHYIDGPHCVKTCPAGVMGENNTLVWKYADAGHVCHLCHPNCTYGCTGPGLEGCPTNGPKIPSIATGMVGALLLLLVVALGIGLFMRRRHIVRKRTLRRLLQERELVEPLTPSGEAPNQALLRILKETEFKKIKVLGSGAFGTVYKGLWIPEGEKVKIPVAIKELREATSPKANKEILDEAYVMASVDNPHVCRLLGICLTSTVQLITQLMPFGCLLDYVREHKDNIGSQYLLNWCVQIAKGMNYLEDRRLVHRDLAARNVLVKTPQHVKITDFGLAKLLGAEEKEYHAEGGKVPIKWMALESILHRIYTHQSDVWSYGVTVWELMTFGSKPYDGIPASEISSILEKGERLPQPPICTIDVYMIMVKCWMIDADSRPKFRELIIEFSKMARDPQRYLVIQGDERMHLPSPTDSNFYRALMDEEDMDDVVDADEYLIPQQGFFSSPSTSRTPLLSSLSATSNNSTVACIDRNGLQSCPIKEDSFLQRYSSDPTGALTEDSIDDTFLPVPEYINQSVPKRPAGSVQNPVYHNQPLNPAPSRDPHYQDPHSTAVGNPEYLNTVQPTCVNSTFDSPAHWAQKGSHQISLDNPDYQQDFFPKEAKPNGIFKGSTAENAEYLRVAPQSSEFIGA
Sequence of Mitogen-activated protein kinase 14 (Homo sapiens) (Q16539 whole entry): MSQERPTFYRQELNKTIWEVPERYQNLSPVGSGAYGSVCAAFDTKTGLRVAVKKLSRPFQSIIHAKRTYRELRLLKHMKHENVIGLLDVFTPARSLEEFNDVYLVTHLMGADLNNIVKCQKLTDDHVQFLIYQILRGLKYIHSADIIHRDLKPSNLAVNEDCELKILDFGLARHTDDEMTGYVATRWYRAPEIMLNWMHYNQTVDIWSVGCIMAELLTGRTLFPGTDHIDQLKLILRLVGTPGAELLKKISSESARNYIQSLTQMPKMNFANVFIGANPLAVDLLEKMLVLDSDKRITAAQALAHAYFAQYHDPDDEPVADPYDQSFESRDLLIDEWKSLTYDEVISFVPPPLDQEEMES
Sequence of Proto-oncogene tyrosine-protein kinase Src (Homo sapiens) (P12931 2-536 limits assumed): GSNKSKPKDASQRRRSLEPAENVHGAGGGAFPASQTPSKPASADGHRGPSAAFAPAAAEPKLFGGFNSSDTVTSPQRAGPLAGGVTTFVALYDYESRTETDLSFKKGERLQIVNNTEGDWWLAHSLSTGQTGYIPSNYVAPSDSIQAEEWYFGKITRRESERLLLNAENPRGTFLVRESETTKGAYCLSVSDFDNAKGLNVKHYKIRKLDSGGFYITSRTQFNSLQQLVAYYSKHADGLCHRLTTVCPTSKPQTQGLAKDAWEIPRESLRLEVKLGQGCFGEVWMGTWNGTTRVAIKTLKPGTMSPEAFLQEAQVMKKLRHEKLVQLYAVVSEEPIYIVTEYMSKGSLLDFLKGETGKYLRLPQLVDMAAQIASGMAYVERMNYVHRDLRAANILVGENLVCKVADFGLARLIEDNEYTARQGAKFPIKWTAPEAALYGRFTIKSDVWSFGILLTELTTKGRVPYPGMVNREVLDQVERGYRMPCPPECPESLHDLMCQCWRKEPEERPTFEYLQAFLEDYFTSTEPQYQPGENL
Sequence of Macrophage colony-stimulating factor 1 receptor (Homo sapiens) (P07333 whole entry, the tested form may be a part): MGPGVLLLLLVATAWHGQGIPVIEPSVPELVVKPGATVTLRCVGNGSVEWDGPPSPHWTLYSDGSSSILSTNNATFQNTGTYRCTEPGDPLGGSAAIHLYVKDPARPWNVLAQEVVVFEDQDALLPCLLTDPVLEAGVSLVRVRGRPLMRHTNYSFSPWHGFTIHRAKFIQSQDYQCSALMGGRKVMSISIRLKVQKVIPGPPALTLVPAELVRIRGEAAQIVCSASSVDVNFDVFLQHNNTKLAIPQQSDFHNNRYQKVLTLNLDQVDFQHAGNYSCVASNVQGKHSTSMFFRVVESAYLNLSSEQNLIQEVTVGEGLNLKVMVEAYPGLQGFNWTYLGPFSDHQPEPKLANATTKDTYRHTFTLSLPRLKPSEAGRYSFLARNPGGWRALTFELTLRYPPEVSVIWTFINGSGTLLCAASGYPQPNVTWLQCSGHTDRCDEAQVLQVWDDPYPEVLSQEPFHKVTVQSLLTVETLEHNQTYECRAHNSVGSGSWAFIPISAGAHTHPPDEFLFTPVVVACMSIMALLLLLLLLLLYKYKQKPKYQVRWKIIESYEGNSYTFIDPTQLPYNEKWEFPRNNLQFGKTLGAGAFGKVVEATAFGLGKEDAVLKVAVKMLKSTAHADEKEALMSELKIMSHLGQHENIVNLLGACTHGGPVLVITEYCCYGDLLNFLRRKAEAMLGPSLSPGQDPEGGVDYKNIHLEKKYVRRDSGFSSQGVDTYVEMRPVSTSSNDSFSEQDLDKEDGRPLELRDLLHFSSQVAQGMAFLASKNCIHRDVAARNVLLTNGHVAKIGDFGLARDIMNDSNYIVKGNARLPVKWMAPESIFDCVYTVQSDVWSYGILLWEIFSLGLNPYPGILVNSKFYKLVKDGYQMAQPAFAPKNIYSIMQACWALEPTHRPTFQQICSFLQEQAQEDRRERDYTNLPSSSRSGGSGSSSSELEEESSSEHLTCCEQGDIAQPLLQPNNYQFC
Sequence of Tyrosine-protein kinase Fgr (Homo sapiens) (P09769 2-529 limits assumed): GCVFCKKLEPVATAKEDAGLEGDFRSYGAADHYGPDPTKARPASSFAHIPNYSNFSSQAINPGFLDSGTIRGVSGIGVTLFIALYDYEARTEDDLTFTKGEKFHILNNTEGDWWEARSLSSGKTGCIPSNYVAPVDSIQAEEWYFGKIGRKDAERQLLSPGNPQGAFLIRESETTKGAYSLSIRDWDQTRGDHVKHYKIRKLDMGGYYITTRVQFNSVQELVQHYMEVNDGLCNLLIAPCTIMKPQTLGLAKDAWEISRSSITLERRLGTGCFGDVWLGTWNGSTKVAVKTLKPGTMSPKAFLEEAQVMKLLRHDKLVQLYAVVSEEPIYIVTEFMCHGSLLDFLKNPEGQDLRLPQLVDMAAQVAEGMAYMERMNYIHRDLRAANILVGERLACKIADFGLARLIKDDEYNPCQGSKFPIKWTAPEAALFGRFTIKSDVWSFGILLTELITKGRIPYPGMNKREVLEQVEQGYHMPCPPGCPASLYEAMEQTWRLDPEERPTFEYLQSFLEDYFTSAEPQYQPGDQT
Sequence of Tyrosine-protein kinase Lyn (Homo sapiens) (P07948 2-512 limits assumed): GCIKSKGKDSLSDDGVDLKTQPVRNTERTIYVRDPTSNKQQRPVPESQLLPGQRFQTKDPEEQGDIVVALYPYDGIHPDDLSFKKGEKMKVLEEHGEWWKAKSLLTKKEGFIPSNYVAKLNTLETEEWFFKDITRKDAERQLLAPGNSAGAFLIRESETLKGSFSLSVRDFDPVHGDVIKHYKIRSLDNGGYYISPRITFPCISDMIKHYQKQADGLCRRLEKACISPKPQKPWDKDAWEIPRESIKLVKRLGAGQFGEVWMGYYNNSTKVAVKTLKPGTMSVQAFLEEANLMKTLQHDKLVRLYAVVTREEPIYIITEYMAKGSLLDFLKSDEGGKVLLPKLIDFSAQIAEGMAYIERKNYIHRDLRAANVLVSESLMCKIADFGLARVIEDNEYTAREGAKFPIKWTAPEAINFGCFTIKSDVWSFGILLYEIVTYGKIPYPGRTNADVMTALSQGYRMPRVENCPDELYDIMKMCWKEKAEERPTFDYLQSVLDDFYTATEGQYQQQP

On to `CCOc1ccccc1-c1cc2c(N[C@H](CO)c3ccccc3)ncnc2[nH]1`, for which the inhibition in assay [1] is 82%; in assay [2] it was 11%; in [3], 102%; in assay [4], 14%; in assay [5], 98%; in assay [6], 1%. Moreover, the inhibition in assay [7] came out at 10%; in assay [8], 1%; in assay [9], 9%; in [10], 17%; in assay [11], 40%; in [12] it was 27%. In addition, the inhibition in assay [13] is -3%; in assay [14], 1%; in [15], 73%. In addition, the IC50 with A-431 was determined as 9200 nM.
`COc1ccccc1-c1cc2c(N[C@H](CO)c3ccccc3)ncnc2[nH]1`: the inhibition was 0% in assay [16]; 3% in assay [17]; 79% in assay [1]; 14% in assay [2]; 100% in [3]; 52% in assay [4]. Moreover, the inhibition in [5] (tested as the 2H-labelled form) amounted to 99%; in [6] it was 1%; in assay [7], 24%; in assay [8], 5%; in [9] it was 15%; in assay [18], 17%. Also, the inhibition in [10] is 6%; in assay [11], 59%; in assay [12], 30%; in assay [14], 15%; in assay [15], 74%.
Take `OC[C@@H](Nc1ncnc2[nH]c(-c3ccccc3)cc12)c1ccccc1`: the inhibition was 1% in assay [16]; 10% in assay [17]; 88% in [1]; 29% in assay [2]; 96% in assay [3]; 47% in [4]. The inhibition in assay [6] was 1%; in assay [7], 19%; in [8], 13%; in assay [9] it was 28%; in [18] it was 20%; in assay [10] it was 9%. The inhibition in assay [11] is 59%; in [12], 29%; in assay [13], 1%; in assay [14], 17%; in assay [15] it was 73%. The midpoint of inhibition in the assay on A-431, the IC50, lay at 300 nM.
Turning to `C#Cc1cccc(Nc2ncnc3cc(OCCOC)c(OCCOC)cc23)c1` [ERLOTINIB], the inhibition in [17] was -7%; in [6], 7%; in [18], 17%; in assay [13] it was -9%. The compound further gave an IC50 with A-431 of 400 nM.
On to `CN(C)CCNCc1ccc(-c2cc3c(N[C@H](CO)c4ccccc4)ncnc3[nH]2)cc1F`, for which the inhibition amounted to 86% in [1]; 21% in assay [2]; 104% in assay [3]; 13% in [4]; 99% in assay [5]; 20% in [7]. Besides, the inhibition in assay [8] amounted to 17%; in [9], 53%; in [18], 1%; in assay [10], 17%; in assay [11] it was 76%; in assay [12] it was 36%. Besides, the results for the inhibition in assay [13] and in assay [15] were -3% and 83%, respectively. The IC50 with A-431 was greater than 10000 nM.
As for `OCC[C@@H](Nc1ncnc2[nH]c(-c3ccccc3)cc12)c1ccccc1`, the inhibition in assay [16] was -10%; in [1] it was 74%; in assay [2], 5%; in [3] it was 100%; in assay [4], 16%; in assay [5] it was 99%. In addition, the inhibition in assay [6] came out at 5%; in assay [7] it was 14%; in assay [8], 7%; in [9] it was 0%; in assay [10], 19%; in [11], 25%. Further, the inhibition was 31% in assay [12], -5% in [13], -9% in [14] and 67% in [15]. This compound gave an IC50 in the assay with A-431 of 800 nM.

A word on the inhibition: it is the relative decrease from the control value, in per cent. A word on the IC50: it is the concentration at which inhibition is half-maximal.

For the origin of these results see ChEMBL document CHEMBL4715760, “Balancing potency, metabolic stability and permeability in pyrrolopyrimidine-based EGFR inhibitors” (Eur J Med Chem, 2016).
